Assay results from patent US20020049151A1, “Therapeutic approaches to diseases by suppression of the NURR subfamily of nuclear transcription factors” (priority 2000, published 2002).
Ends that are not written are not given here.

How the values were obtained:
[1] = test system: NURR1 mRNA; assay: Northern blot of NURR1 mRNA in synovium explants; format: cell-based, human; details: CRH 10^−8 M
Description: (§1) To determine whether the NURR subfamily contribute to CRH signaling in a pathological context, freshly excised RA (FIG. 4A) and PsA synovium explants were incubated with CRH (10^−8 M) and examined for its ability to induce expression of NURR1 and NUR77 transcripts. […] Furthermore, analysis of synovium explants indicates higher endogenous and CRH-inducible NURR1 mRNA compared to NUR77 transcript levels.
(§2) In FIG. 4 total RNA was extracted and northern blot analysis was performed. Filters were hybridized with a cDNA for NURR1 or NUR77 and also with GAPDH to control for loading and transfer. Synovial explants were left untreated [C] or incubated with 10^−8M CRH for the indicated times. (FIG. 4A) Confluent monolayers of primary synoviocytes were left untreated [C] or pretreated with 10^−8M dexamethasone (DEX) for 2 h prior to the addition of 25μM forskolin (FOR) or 20 ng/ml of phorbal myristic acetate (PMA). (FIG. 4B)
(§3) For FIG. 6 each membrane was reprobed with a GAPDH cDNA to control for loading and transfer. NURR1 mRNA levels were measured by northern analysis using total RNA extracted from synoviocytes left untreated [C] or cultured for the time indicated with (A) TNFα (10 ng/ml) in the presence or absence of pre-treatment with 10^−8M dexamethasone (DEX). (B) IL-1β(10 ng/ml) in the presence or absence of pretreatment with 2 μM indomethacin (INDO) or 10^−8M DEX. (C) or synovial explants cultured with IL-6 (10 ng/ml). (D) 1 μM PGE2. (E) 25 μM forskolin (FOR) or […] for 1h in the absence or presence of 5 µg/ml cycloheximide (CHX).
(§4) Total RNA was isolated from cultured primary synoviocytes or synovial explants. RNA was quantitated by UV absorption and 10 μg of total RNA were electrophoresed on a standard northern gel and transferred to nylon membrane (BioRad, Richmond, Calif.). NURR1 and NUR77 cDNA probes (Murphy and Conneely, 1997), spanning the amino terminal region to avoid cross-hybridization, were radiolabeled to a high specific activity using [α-^32P] dCTP and a random primer labeling system (Promega, Madison, Wis.). Blots were exposed to film at −80° C. using intensifying screens and autoradiographic intensity was quantitated using an imaging densitometer.

[2] = test system: NUR77 mRNA; assay: Northern blot of NUR77 mRNA in synovium explants; format: cell-based, human; details: CRH 10^−8 M
Description: as §1, §2, §4

[3] = test system: NURR1 mRNA; assay: Northern blot of NURR1 mRNA in primary synoviocytes; format: cell-based, human; details: for NURR1 mRNA levels after stimulation: 20 ng/ml PMA, 10 ng/ml TNFα, IL-1β, IL-6, 1 μM PGE2, CRH; for effect on IL-1β-induced NURR1 mRNA: IL-1β 10 ng/ml, indomethacin 2 μM
Description: (§5) Regulation of gene expression by the protein kinase A and C pathways represent important signaling events in RA synoviocytes (Ben-Av et al., 1995; Crofford et al., 1994; Firestein and Manning, 1999). […] To investigate the involvement of the protein kinase C signaling pathways in NURR regulation, synoviocytes were treated with phorbal myristic acetate (PMA). […] In contrast, dexamethasone had little effect on forskolin- or PMA-induced NUR77 levels.
as §2
Therefore the pathological importance of the NURR transcription factors in inflammatory joint disease was further examined by determining the ability of pro-inflammatory agonists to regulate NURR transcript levels in primary synoviocytes and synovium explant tissue (FIG. 6).
as §3
Northern analysis of primary RA synoviocytes were untreated (lane 1) or treated for 1 hour with TNFα (lane 2), IL-1β (lane 3), and PGE2 (lane 4). TNFα and IL-1β were used at a concentration of 10 ng/mL and PGE2 was at a concentration of 10^-6 M.
as §4

[4] = test system: NUR77 mRNA; assay: Northern blot of NUR77 mRNA in primary synoviocytes; format: cell-based, human; details: 25 μM forskolin, 20 ng/ml PMA, CRH
Description: as §5
In FIG. 4 total RNA was extracted and northern blot analysis was performed. Filters were hybridized with a cDNA for NURR1 or NUR77 and also with GAPDH to control for loading and transfer. Synovial explants were left untreated [C] or incubated with 10^−8M CRH for the indicated times. […]
Dexamethasone (10^−8M) inhibited the TNFα, IL-1β (FIGS. 6A and B) and PGE2-stimulated NURR1 MRNA in synoviocytes and CRH-induced NURR1 expression in synovium explants. […] For each northern blot shown in FIG. 6, NUR77 mRNA levels were also analyzed. […]
Total RNA was isolated from cultured primary synoviocytes or synovial explants. RNA was quantitated by UV absorption and 10 μg of total RNA were electrophoresed on a standard northern gel and transferred to nylon membrane (BioRad, Richmond, Calif.). […] Blots were exposed to film at −80° C. using intensifying screens and autoradiographic intensity was quantitated using an imaging densitometer.

[5] = test system: CRH R1; details: cited from earlier work
[6] = dexamethasone 10^−8M, cycloheximide 5 µg/ml

In the case of “CRH: Corticotropin Releasing Hormone, a major regulator of the hypothalamic pituitary axis (SEEPPISLDLTFHLLREVLEMARAEQLAQQAHSNRKLMEII; ends and bridges not checked; UniProt P06850 154-194, looked up)”, the “NURR1 mRNA induction in synovium explants” value ([1]; RA and PsA synovium explants, IL-6 10 ng/ml) is reported as “rapidly induced”, the “time to NURR1 mRNA induction” value ([1]; synovium explants) is reported as ≤ 1 h and the “time to decline of NURR1 mRNA to basal levels” value ([1]; synovium explants) is reported as ≤ 3 h. The “NUR77 mRNA induction in synovium explants” value ([2]; RA and PsA synovium explants) was “rapidly induced”, the “time to NUR77 mRNA induction” value ([2]; synovium explants) was ≤ 1 h and the “time to decline of NUR77 mRNA to basal levels” value ([2]; synovium explants) was ≤ 3 h. For the same molecule, the “NURR1 mRNA levels after stimulation” value ([3]; 25 μM forskolin) was “not observed” and the “NUR77 mRNA levels after stimulation” value [4] was “not observed”.
For `CCCCCCCCCCCCCC(=O)O[C@@H]1[C@@H](C)[C@@]2(O)[C@@H](C=C(CO)C[C@]3(O)C(=O)C(C)=C[C@@H]23)[C@@H]2C(C)(C)[C@]12OC(C)=O` [PMA, phorbal myristic acetate, reference compound], the “NURR1 mRNA levels after stimulation” value ([3]; 25 μM forskolin) was “no stimulatory effects” and the “NUR77 mRNA levels after stimulation” value [4] was “modestly up-regulated”.
For `C[C@@H]1C[C@@H]([C@H](O)CC2CC(=O)NC(=O)C2)C(=O)[C@@H](C)C1` [Cycloheximide, cycloheximide], the “effect on forskolin-induced NURR1 expression” value ([3]; 25 μM forskolin, dexamethasone 10^−8M pre-treatment 2 h, cycloheximide 5 µg/ml) was “robustly enhanced”, the “effect on IL-1β-induced NURR1 mRNA” value ([3]; dexamethasone 10^−8M) was “robustly enhanced” and the “effect on TNFα-stimulated NURR1 mRNA” value ([3]; TNFα 10 ng/ml, dexamethasone 10^−8M) was “robustly enhanced”. For the same molecule, the “basal / endogenous NURR1 expression” value [3, 6] was “increased” and the “effect on PGE2-stimulated NURR1 mRNA” value ([3]; dexamethasone 10^−8M, cycloheximide 5 µg/ml, 1M PGE2 for 1h) was “robustly enhanced”.
In the case of `CCCCN(CC)c1nc(C)nc2c1c(C)c(C)n2-c1c(C)cc(C)cc1C` [antalarmin], the “CRH antagonism at sites of inflammation in vivo” value [5] is given as “clinically effective CRH antagonist at sites of inflammation”.
In the case of `C[C@@H]1C[C@H]2[C@@H]3CCC4=CC(=O)C=C[C@]4(C)[C@@]3(F)[C@@H](O)C[C@]2(C)[C@@]1(O)C(=O)CO` [dexamethasone], the “basal / endogenous NURR1 expression” value [3, 6] is reported as “no effect”.
For `COc1ccc2c(c1)c(CC(=O)O)c(C)n2C(=O)c1ccc(Cl)cc1` [indomethacin], the “effect on IL-1β-induced NURR1 mRNA” value ([3]; dexamethasone 10^−8M) was “not blocked”.
